Among the data in ChEMBL document CHEMBL1137822 (J Med Chem, 2004) are IC50 values, retold here.

SMILES strings stand for the structures.

The target of one experiment is Cholinesterase (Homo sapiens, UniProt P06276). The experiment is described as follows: Inhibitory concentration against human serum butyrylcholinesterase activity.
A further experiment addresses Acetylcholinesterase (Homo sapiens, UniProt P22303). The experiment is described as follows: Inhibitory concentration against human serum acetylcholinesterase activity.

Acetylcholinesterase, sequence (P22303 whole entry): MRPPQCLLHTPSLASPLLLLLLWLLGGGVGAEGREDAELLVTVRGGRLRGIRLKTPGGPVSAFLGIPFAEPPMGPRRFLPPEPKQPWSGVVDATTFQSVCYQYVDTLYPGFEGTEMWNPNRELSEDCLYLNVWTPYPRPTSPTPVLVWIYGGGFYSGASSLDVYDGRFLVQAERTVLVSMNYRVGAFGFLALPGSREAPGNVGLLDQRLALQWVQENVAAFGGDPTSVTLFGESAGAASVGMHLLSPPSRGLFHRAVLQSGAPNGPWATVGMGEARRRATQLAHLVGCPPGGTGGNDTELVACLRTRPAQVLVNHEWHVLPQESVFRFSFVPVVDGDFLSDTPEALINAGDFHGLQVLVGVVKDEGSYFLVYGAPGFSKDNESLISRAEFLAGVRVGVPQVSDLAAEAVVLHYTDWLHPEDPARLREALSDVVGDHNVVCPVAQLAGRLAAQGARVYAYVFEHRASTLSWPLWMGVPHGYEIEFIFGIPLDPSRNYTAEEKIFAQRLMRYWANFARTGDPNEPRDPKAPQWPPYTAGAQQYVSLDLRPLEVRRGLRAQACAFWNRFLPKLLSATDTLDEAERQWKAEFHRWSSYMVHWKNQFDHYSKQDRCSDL
Cholinesterase, sequence (P06276 whole entry): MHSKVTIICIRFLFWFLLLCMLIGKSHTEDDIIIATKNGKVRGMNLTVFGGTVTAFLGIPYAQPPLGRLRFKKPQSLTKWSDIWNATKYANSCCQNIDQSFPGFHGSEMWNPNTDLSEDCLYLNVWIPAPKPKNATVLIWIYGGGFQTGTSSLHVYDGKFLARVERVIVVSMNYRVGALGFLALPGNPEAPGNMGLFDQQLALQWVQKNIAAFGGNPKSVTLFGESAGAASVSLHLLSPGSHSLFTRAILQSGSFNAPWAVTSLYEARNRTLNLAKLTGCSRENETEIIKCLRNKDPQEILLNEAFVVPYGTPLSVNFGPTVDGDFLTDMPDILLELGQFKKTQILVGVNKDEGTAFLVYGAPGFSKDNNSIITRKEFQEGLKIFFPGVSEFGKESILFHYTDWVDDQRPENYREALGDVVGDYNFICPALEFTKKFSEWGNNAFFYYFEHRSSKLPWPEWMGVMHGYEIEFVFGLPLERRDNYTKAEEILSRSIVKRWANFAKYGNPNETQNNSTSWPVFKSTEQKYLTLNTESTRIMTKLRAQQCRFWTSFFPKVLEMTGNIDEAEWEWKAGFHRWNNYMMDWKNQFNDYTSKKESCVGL

One may read the IC50 as the concentration that inhibits the measured activity by half. On to `CCCCCCCNC(=O)Oc1cccc2c1OCC1CCN(C)C21` (centres undefined), for which the results for the IC50 at Cholinesterase and at Acetylcholinesterase were 1.26 nM and 20.3 nM, respectively.

In the case of `CNC(=O)Oc1cccc2c1SCC1CCN(C)C21` (centres undefined), the IC50 against Cholinesterase was determined as 10.5 nM; against Acetylcholinesterase, 8.11 nM.

Regarding `CNC(=O)Oc1cccc(C(C)N(C)C)c1` (centres undefined), on Cholinesterase, the IC50 stood at 406 nM.

As for `CCNC(=O)Oc1cccc2c1CCC1CCN(C)C21` (centres undefined), the values for the IC50 against Cholinesterase and against Acetylcholinesterase were 30.3 nM and 393 nM, respectively.

In the case of `CNC(=O)Oc1cccc2c1CCC1CCN(C)C21` (centres undefined), the IC50 is 24.5 nM on Cholinesterase and 17.3 nM against Acetylcholinesterase.

As to `CCNC(=O)Oc1cccc2c1OCC1CCN(C)C21` (centres undefined), the results for the IC50 against Cholinesterase and against Acetylcholinesterase were 44.4 nM and 420 nM, respectively.

Turning to `CC(NC(=O)Oc1cccc2c1OCC1CCN(C)C21)c1ccccc1` (centres undefined), the IC50 against Cholinesterase came out at 209 nM.

Consider `CNC(=O)Oc1cccc2c1OCC1CCN(C)C21` (centres undefined), for which the IC50 was determined as 59.4 nM at Cholinesterase and 30 nM at Acetylcholinesterase.
